Values quoted from earlier work in US10493069B2, “Methods of treating behavioral syndromes using pipradrol” (Ovid Therapeutics Inc., priority 2016, dated 2019).

System: individuals with depression
Details: study on 111 individuals with depression; Rickels et al., J Clin Pharmacol 14, 127-133 (1974)

For `OC(c1ccccc1)(c1ccccc1)C1CCCCN1` (stereo not shown) [pipradrol], the “efficacy compared with placebo in depression” value is listed as “not superior to placebo”.
